Where two headings read alike, the source gives them in different places.
How the values were obtained:
[1] = human, cited from earlier work
[2] = test system: rodent model of depression; experiment: Forced swim test - Depression; type: in vivo; settings: all doses listed in the cell
human subjects = settings: cited from earlier work
[3] = human, cited from earlier work; remark: listed apart in the source
[4] = 30 mg, day 7 MAD (MTD), morning dosing

C[C@@]1(O)CC[C@H]2[C@H](CC[C@@H]3[C@@H]2CC[C@]2(C)[C@@H](C(=O)Cn4cc(C#N)cn4)CC[C@@H]32)C1 [Sage-217, zuranolone]
Tmax ([1]; 55 mg SAD MTD): 1.24 h
SAD MTD ([1]; single ascending dose): SAGE-217 55 mg SAD MTD
Doses in Forced swim test - Depression, * = significantly efficacious dose [2]: 1 - 3* mg/kg
Any adverse event, (%) (human subjects; 20 mg, n-188): (50.0) %
Diarrhea, (%) (human subjects; 20 mg, n-188): (5.9) %
Dizziness, (%) (human subjects; 20 mg, n-188): (7.4) %
Fatigue, (%) (human subjects; 20 mg, n-188): (1.6) %
Headache, (%) (human subjects; 20 mg, n-188): (11.2) %
Nausea, (%) (human subjects; 20 mg, n-188): (5.3) %
Sedation, (%) (human subjects; 20 mg, n-188): (5.9) %
Somnolence, (%) (human subjects; 20 mg, n-188): (5.9) %
Any adverse event, (%) (human subjects; 30 mg, n-192): (54.2) %
Diarrhea, (%) (human subjects; 30 mg, n-192): (6.3) %
Dizziness, (%) (human subjects; 30 mg, n-192): (5.7) %
Fatigue, (%) (human subjects; 30 mg, n-192): (6.8) %
Headache, (%) (human subjects; 30 mg, n-192): (6.3) %
Nausea, (%) (human subjects; 30 mg, n-192): (3.6) %
Sedation, (%) (human subjects; 30 mg, n-192): (4.7) %
Somnolence, (%) (human subjects; 30 mg, n-192): (6.8) %
ratio of Cmax/trough on day 7 ([3]; 30 mg daily in the evening in a fed state): 5.88
AUC0-inf [3, 4]: 833.2 ng·h/mL
Cmin [3, 4]: 12.46 ng/mL
Ratio (Cmax/Cmin) [3, 4]: 9.24
MAD MTD ([3]; multiple ascending dose): SAGE-217 30 mg
